Data reported in patent US11033556B2, “Bicyclic sulfonamides” (priority 2019, dated 2021).
Read-outs that look alike come from different tables or passages of the source.

Experiments:
[1] = tested on: HBV; assay: HBV-DNA Antiviral Assay Using HepG2.2.15 Cells; type: cell-based
Protocol: The following assay procedure describes the HBV antiviral assay. This assay uses HepG2.2.15 cells, which have been transfected with HBV genome, and extracellular HBV DNA quantification as endpoint. Cell viability is assessed in parallel by measuring the intracellular ATP content using the CellTiter-Glo® reagent from Promega.
On day 0, HepG2.2.15 cells were seeded in 96-well plates at a density of 6.0×10^4 cells/well(0.1 ml/well). The cells were incubated at 37° C. and 5% CO2.
On day 1, the test articles were diluted and added to cell culture wells (8 concentrations, 4-fold dilution, in duplicate). GLS4, Tenofovir and Sorafenib were used as reference compounds. 100 μl of culture medium containing the compounds was added to the plate, and the final total volume per well was 200 μl. The final concentration of DMSO in the culture medium was 0.5%. The plate map of compound treatment is shown below. The cells were cultured at 37° C. and 5% CO2 for 3 days.
On day 4, the plates were refreshed with culture media with compounds.
On day 7, cell viability was assessed using the CellTiter-Glo®, and the cell culture supernatants were collected for determination of HBV DNA by qPCR.
Extracellular DNA was isolated with QIAamp 96 DNA Blood Kit per the manufacturer's manual. HBV DNA was then quantified by qPCR with HBV specific primers and probes as specified in Table 2 using the FastStart Universal MasterMix from Roche on an ABI-7900HT. The PCR cycle program consisted of 95° C. for 10 min, followed by 40 cycles at 95° C. for 15 sec and 60° C. for 1 min.
A DNA standard was prepared by dilution of the pAAV2 HBV1.3 plasmid with concentrations ranging from 10 to 1×10^7 […] and used to generate a standard curve by plotting Ct value vs. the concentration of the HBV plasmid DNA standard. The quantity of HBV DNA in each sample was determined by interpolating from the standard curve.
Cell viability was calculated as follows: % Cell viability=(luminescence value of test sample−average luminescence value of blank)/(average luminescence value of 0.5% DMSO control−average luminescence of blank)×100%. HBV DNA inhibition was calculated as follows: 100−(HBV DNA copy number of test sample−HBV DNA copy number of ETV)/HBV DNA copy number of 0.5% DMSO control−HBV DNA copy number of ETV)×100%. The CC50, EC50 and EC90 values were determined by dose-response curves fitted by GraphPad Prism using “log (agonist) vs. response—Variable slope”.

[2] = tested on: genotype D HBV; assay: HBV-DNA Antiviral Assay Using HepG2.117 Cells; type: cell-based; details: intracellular HBV DNA by qPCR, day 4
Protocol: The following assay procedure describes the HBV antiviral assay, using HepG2.117 cells, which carry a stably integrated genotype D HBV genome under the control of a Tet-off promoter, and intracellular HBV DNA quantification as endpoint. Cell viability is assessed in parallel by measuring the intracellular ATP content using ATPlite (Perkin Elmer).
On day 0, HepG2.117 cells (which are maintained in routine cell culture with doxycycline present in the medium at a final concentration of 1 μg/mL) were seeded in 96-well plates (white with clear bottom) at a density of 2.0×10^4 cells/well (0.1 mL/well) in medium without doxycycline to induce pgRNA transcription and subsequent formation of HBV particles. The cells were incubated at 37° C. and 5% CO2.
On day 1, medium was removed from each well, the test articles were diluted in culture medium without doxcycyline and 100 μL was added to cell culture wells (9 concentrations, 4-fold dilution). For each plate, 6 untreated (merely DMSO) wells were included. The final concentration of DMSO in the culture medium was 2%. Each plate was prepared in duplicate (one for HBV DNA extraction, one for ATPlite measurement). The cells were incubated at 37° C. and 5% CO2 for 3 days.
On day 4, cell viability was assessed using ATPlite and cell lysates were prepared for HBV DNA extraction and subsequent quantification by qPCR.
Medium was removed from each well and 100 μL of 0.33% NP-40 in H2O was added to each well. Plates were sealed, incubated at 4° C. for 5 mins, vortexed extensively and centrifuged briefly. Next, 35 μL of lysate was added to 65 μL QuickExtract DNA Extraction Solution (Epicentre) in a PCR plate for each well. PCR plate was incubated at 65° C. for 6 mins, 98° C. for 2 mins and finally cooled to 4° C. HBV DNA was then quantified by qPCR with HBV-specific primers and probes as specified in Table 4 using the Bio-Rad SSOAdvanced Universal Probes Supermix on a CFX96 machine (Bio-Rad). The PCR cycle program consisted of 95° C. for 3 mins, followed by 40 cycles at 95° C. for 10 sec and 60° C. for 30 sec.
A DNA standard was prepared by dilution of an IDT gBlock corresponding to the amplicon with concentrations ranging from 10^2 to 10^8 copies/input (i.e. per 4 μL) and used to generate a standard curve by plotting Cq values vs. HBV DNA standard concentration. The quantity of HBV DNA in each sample was determined by interpolating from the standard curve.
Cell viability was calculated as follows: % Cell viability=(luminescence value of test sample)/(average luminescence value of 2% DMSO control)×100%. HBV DNA inhibition was calculated as follows: 100−(HBV DNA copy number of test sample)/(average HBV DNA copy number of 2% DMSO control)×100%. No normalization to entecavir was required due to the excellent dynamic window of this assay. The CC50, EC50 and EC90 values were determined by dose-response curves fitted by GraphPad Prism using “log (agonist) vs. response—Variable slope”.

[3] = Hepatitis B virus, HepG2.2.15 cells, extracellular HBV DNA by qPCR, one class for the group of four: *at least 2 of the diastereomers have the indicated activity, read-out: EC50

Structure (SMILES) | EC50 [1, 3] | also measured
C=C[C@H]1COc2c(cn(C)c2C(=O)Nc2ccc(F)c(C#N)c2)S(=O)(=O)N1 [Compound 1, (3S)—N-(3-cyano-4-fluorophenyl)-3-ethenyl-7-methyl-1,1-dioxo-2H,3H,4H-11λ6-pyrrolo[3,4-b][1,4,5]oxathiazepine-6-carboxamide] |  | EC50 ([1]; HepG2.2.15 cells, extracellular HBV DNA by qPCR, day 7, read-out: EC50): < 1 µM; EC50 [2]: 0.001 to 0.01 µM
C#C[C@@H](O)[C@H]1CCc2c(cn(C)c2C(=O)Nc2ccc(F)c(C#N)c2)S(=O)(=O)N1 [Compound 2A, (3R)—N-(3-cyano-4-fluorophenyl)-3-[(1R)-1-hydroxyprop-2-yn-1-yl]-7-methyl-1,1-dioxo-2H,3H,4H,5H-1λ6-pyrrolo[3,4-f][1,2]thiazepine-6-carboxamide] | < 1 µM | 
C#C[C@H](O)[C@H]1CCc2c(cn(C)c2C(=O)Nc2ccc(F)c(C#N)c2)S(=O)(=O)N1 [Compound 2B, (3R)—N-(3-cyano-4-fluorophenyl)-3-[(1S)-1-hydroxyprop-2-yn-1-yl]-7-methyl-1,1-dioxo-2H,3H,4H,5H-1λ6-pyrrolo[3,4-f][1,2]thiazepine-6-carboxamide] | < 1 µM | 
C#C[C@H](O)[C@@H]1CCc2c(cn(C)c2C(=O)Nc2ccc(F)c(C#N)c2)S(=O)(=O)N1 [Compound 2C, (3S)—N-(3-cyano-4-fluorophenyl)-3-[(1S)-1-hydroxyprop-2-yn-1-yl]-7-methyl-1,1-dioxo-2H,3H,4H,5H-1λ6-pyrrolo[3,4-f][1,2]thiazepine-6-carboxamide] | < 1 µM | 
C#C[C@@H](O)[C@@H]1CCc2c(cn(C)c2C(=O)Nc2ccc(F)c(C#N)c2)S(=O)(=O)N1 [Compound 2D, (3S)—N-(3-cyano-4-fluorophenyl)-3-[(1R)-1-hydroxyprop-2-yn-1-yl]-7-methyl-1,1-dioxo-2H,3H,4H,5H-1λ6-pyrrolo[3,4-f][1,2]thiazepine-6-carboxamide] | < 1 µM | 
CC#C[C@@H](O)[C@H]1CCc2c(cn(C)c2C(=O)Nc2ccc(F)c(C#N)c2)S(=O)(=O)N1 [Compound 3A, (3R)—N-(3-cyano-4-fluorophenyl)-3-[(1R)-1-hydroxybut-2-yn-1-yl]-7-methyl-1,1-dioxo-2H,3H,4H,5H-1λ6-pyrrolo[3,4-f][1,2]thiazepine-6-carboxamide] |  | EC50 ([1]; Hepatitis B virus, HepG2.2.15): < 1 µM
CC#C[C@H](O)[C@@H]1CCc2c(cn(C)c2C(=O)Nc2ccc(F)c(C#N)c2)S(=O)(=O)N1 [Compound 3C, (3S)—N-(3-cyano-4-fluorophenyl)-3-[(1S)-1-hydroxybut-2-yn-1-yl]-7-methyl-1,1-dioxo-2H,3H,4H,5H-1λ6-pyrrolo[3,4-f][1,2]thiazepine-6-carboxamide] |  | EC50 ([1]; Hepatitis B virus, HepG2.2.15): < 1 µM
CC#C[C@@H](O)[C@@H]1CCc2c(cn(C)c2C(=O)Nc2ccc(F)c(C#N)c2)S(=O)(=O)N1 [Compound 3D, (3S)—N-(3-cyano-4-fluorophenyl)-3-[(1R)-1-hydroxybut-2-yn-1-yl]-7-methyl-1,1-dioxo-2H,3H,4H,5H-1λ6-pyrrolo[3,4-f][1,2]thiazepine-6-carboxamide] |  | EC50 ([1]; Hepatitis B virus, HepG2.2.15): < 1 µM
C=C[C@@H](O)[C@H]1CCc2c(cn(C)c2C(=O)Nc2ccc(F)c(C#N)c2)S(=O)(=O)N1 [Compound 4A, (3R)—N-(3-cyano-4-fluorophenyl)-3-[(1R)-1-hydroxyprop-2-en-1-yl]-7-methyl-1,1-dioxo-2H,3H,4H,5H-1λ6-pyrrolo[3,4-f][1,2]thiazepine-6-carboxamide] | < 1 µM | 
C=C[C@H](O)[C@H]1CCc2c(cn(C)c2C(=O)Nc2ccc(F)c(C#N)c2)S(=O)(=O)N1 [Compound 4B, (3R)—N-(3-cyano-4-fluorophenyl)-3-[(1S)-1-hydroxyprop-2-en-1-yl]-7-methyl-1,1-dioxo-2H,3H,4H,5H-1λ6-pyrrolo[3,4-f][1,2]thiazepine-6-carboxamide] | < 1 µM | 
C=C[C@H](O)[C@@H]1CCc2c(cn(C)c2C(=O)Nc2ccc(F)c(C#N)c2)S(=O)(=O)N1 [Compound 4C, (3S)—N-(3-cyano-4-fluorophenyl)-3-[(1S)-1-hydroxyprop-2-en-1-yl]-7-methyl-1,1-dioxo-2H,3H,4H,5H-1λ6-pyrrolo[3,4-f][1,2]thiazepine-6-carboxamide] | < 1 µM | 
C=C[C@@H](O)[C@@H]1CCc2c(cn(C)c2C(=O)Nc2ccc(F)c(C#N)c2)S(=O)(=O)N1 [Compound 4D, (3S)—N-(3-cyano-4-fluorophenyl)-3-[(1R)-1-hydroxyprop-2-en-1-yl]-7-methyl-1,1-dioxo-2H,3H,4H,5H-1λ6-pyrrolo[3,4-f][1,2]thiazepine-6-carboxamide] | < 1 µM | 
Cn1cc2c(c1C(=O)Nc1ccc(F)c(C#N)c1)OC[C@H](C=C(F)F)NS2(=O)=O [Compound 6A] |  | EC50 ([1]; Hepatitis B virus, 168 h, HepG2.2.15 cells, extracellular HBV DNA by qPCR, day 7, read-out: EC50): < 1 µM
